pIC50, pKd: −log10 of the molar value.
Assays:
HCT-116 [1] = assay: Antiproliferative activity against human HCT-116 cells assessed as growth inhibition after 96 hrs by CCK8 assay; format: functional, cell-based; details: HCT-116, 96 h
[2] = biological target: T1, Dual specificity protein kinase TTK (Homo sapiens, UniProt P33981); assay: Binding affinity to wild-type human partial length TTK (N505 to V798 residues) expressed in bacterial expression system by active site-directed competition binding based Kinomescan method
T1 sequence (P33981 whole entry): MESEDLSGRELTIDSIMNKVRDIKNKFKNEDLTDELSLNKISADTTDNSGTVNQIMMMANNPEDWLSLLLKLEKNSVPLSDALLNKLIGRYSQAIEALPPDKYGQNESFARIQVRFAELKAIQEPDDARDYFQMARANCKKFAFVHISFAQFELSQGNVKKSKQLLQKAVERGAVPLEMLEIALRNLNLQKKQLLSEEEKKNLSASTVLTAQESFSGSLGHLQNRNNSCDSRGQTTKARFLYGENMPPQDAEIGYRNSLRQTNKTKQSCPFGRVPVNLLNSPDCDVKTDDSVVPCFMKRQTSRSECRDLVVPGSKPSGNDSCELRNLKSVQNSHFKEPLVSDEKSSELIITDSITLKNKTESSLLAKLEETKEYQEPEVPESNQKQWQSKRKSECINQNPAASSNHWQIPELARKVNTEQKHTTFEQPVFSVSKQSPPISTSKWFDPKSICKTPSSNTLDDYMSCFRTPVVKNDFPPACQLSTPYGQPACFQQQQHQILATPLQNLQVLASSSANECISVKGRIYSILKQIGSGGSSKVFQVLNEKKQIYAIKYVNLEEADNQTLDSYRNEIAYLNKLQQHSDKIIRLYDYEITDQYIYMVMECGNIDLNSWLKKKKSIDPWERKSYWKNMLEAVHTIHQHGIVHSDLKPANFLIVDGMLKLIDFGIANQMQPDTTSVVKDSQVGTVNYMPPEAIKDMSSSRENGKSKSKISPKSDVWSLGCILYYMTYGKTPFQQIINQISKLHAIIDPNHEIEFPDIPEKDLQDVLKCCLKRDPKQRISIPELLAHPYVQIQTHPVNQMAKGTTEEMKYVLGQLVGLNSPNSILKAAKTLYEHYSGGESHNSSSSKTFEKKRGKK

[3] = biological target: Phosphorylase b kinase gamma catalytic chain, liver/testis isoform (Homo sapiens) (UniProt P15735); details: dose 100.0 nM
Description: Inhibition of human recombinant PHKG2 using ZIPtide at 100 nM direct filter-binding radiometric kinase activity assay relative to control

NCI-H460 = assay: Antiproliferative activity against human NCI-H460 cells assessed as growth inhibition after 96 hrs by CCK8 assay; format: functional, cell-based; details: NCI-H460, 96 h
[4] = biological target: Mitogen-activated protein kinase 8 (Homo sapiens) (UniProt P45983); details: dose 100.0 nM
Description: Inhibition of human full length JNK-1 using ATF2 as substrate at 100 nM direct filter-binding radiometric kinase activity assay relative to control

HCT-116 [5] = assay: Induction of apoptosis in human HCT-116 cells assessed as early apoptotic cells at 111.1 nM incubated for 48 hrs by annexin V and 7-AAD staining based flow cytometry analysis (reference value: 8.12 %); format: functional
[6] = biological target: Casein kinase II subunit alpha (Homo sapiens) (UniProt P68400); details: dose 100.0 nM
Sequence of Casein kinase II subunit alpha (Homo sapiens) (P68400 whole entry, looked up): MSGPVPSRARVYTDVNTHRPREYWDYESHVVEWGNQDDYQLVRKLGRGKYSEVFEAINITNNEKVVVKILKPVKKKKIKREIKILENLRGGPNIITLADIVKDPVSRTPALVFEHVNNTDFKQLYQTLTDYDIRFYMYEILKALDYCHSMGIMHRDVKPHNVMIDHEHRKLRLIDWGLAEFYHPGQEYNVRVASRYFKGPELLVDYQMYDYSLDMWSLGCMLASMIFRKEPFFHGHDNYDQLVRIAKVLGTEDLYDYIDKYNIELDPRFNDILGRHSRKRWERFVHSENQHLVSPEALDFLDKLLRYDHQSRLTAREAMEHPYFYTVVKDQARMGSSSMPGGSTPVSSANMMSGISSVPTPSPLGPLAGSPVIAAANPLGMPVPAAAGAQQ

HCT-116 [7] = assay: Induction of apoptosis in human HCT-116 cells assessed as late apoptotic cells at 1000 nM incubated for 48 hrs by annexin V and 7-AAD staining based flow cytometry analysis (reference value: 8.59 %); format: functional
[8] = biological target: Phosphatidylinositol 3-kinase C2 domain-containing subunit gamma (Homo sapiens, UniProt O75747); assay: Binding affinity to human partial length PIK3C2G (M1 to I1446 residues) expressed in mammalian expression system by active site-directed competition binding based Kinomescan method
Sequence of Phosphatidylinositol 3-kinase C2 domain-containing subunit gamma (O75747 whole entry, the tested form may be a part): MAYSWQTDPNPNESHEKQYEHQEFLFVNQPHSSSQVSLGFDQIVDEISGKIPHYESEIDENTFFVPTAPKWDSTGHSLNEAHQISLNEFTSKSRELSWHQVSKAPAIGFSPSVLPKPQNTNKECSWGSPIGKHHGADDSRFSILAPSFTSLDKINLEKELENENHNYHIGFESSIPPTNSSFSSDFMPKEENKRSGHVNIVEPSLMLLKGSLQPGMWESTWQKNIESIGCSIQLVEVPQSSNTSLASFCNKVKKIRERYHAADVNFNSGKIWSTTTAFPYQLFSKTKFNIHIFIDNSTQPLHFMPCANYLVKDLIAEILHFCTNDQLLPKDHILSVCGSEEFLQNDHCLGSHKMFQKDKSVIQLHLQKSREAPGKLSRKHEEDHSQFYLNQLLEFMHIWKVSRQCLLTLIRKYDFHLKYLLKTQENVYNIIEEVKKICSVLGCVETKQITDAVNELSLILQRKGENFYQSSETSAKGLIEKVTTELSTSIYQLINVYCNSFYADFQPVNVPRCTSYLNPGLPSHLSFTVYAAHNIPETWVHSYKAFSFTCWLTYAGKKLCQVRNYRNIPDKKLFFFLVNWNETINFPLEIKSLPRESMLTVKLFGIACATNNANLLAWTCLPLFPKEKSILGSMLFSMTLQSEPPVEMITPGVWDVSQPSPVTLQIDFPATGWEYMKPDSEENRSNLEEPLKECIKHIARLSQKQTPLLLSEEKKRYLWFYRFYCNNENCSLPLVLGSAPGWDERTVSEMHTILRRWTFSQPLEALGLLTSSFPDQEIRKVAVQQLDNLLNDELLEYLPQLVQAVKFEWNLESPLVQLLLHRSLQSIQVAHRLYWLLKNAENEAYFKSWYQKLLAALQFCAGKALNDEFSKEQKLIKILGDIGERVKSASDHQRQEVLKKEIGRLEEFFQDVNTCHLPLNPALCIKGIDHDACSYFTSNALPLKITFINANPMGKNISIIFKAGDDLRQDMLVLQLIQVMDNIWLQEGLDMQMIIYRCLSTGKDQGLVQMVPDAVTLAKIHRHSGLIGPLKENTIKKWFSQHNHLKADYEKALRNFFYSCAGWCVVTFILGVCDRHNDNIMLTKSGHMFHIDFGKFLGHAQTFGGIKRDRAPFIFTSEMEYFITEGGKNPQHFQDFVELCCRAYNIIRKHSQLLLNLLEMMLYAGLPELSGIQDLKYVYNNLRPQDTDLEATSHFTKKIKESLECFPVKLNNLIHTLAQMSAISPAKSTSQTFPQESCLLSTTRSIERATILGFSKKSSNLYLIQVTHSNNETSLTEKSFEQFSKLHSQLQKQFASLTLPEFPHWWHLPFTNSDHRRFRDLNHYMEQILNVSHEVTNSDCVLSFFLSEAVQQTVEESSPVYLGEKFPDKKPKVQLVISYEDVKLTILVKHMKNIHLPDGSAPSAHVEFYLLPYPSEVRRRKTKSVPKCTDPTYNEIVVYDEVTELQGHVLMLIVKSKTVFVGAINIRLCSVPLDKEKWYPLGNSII

[9] = biological target: Serine/threonine-protein kinase ULK2 (Homo sapiens) (UniProt Q8IYT8); details: dose 100.0 nM
Sequence of Serine/threonine-protein kinase ULK2 (Homo sapiens) (Q8IYT8 whole entry): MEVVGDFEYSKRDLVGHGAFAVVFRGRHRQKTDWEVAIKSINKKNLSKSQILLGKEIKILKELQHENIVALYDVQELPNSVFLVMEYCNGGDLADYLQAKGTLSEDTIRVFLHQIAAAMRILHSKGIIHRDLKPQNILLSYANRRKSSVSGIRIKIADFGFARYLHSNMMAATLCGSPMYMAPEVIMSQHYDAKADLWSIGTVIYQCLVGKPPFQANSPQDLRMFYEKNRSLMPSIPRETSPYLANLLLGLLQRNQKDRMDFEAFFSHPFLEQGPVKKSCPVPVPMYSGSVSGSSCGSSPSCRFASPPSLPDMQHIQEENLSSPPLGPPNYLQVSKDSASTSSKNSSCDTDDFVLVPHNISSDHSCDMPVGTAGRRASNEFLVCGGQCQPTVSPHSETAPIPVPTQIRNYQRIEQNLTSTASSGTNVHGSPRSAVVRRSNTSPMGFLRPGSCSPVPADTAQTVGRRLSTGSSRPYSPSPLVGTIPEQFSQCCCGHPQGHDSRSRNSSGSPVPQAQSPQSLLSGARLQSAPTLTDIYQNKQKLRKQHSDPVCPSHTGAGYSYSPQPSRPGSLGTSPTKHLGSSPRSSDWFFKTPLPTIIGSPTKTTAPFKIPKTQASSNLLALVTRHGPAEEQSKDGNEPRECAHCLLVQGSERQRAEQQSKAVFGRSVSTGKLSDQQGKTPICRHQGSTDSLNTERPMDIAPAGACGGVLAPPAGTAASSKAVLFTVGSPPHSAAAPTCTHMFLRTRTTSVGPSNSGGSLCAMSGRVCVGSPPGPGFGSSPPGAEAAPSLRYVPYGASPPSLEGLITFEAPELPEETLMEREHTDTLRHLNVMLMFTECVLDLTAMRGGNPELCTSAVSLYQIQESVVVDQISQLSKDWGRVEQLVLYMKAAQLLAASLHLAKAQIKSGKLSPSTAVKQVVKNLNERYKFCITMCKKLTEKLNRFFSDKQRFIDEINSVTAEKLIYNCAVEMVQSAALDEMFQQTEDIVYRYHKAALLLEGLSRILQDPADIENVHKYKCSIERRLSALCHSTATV
Description: Inhibition of human recombinant ULK2 (1 to 306) using casein at 100 nM direct filter-binding radiometric kinase activity assay relative to control

HCT-116 [10] = assay: Antitumor activity at human HCT-116 cells xenografted in CB17-SCID mouse assessed as tumor growth inhibition at 50 mg/kg, po administered once daily for 16 days in combination with paclitaxel at 20 mg/kg, ip once weekly relative to control; format: functional; details: HCT-116, 384 h, time 16 day, read-out: TGI
[11] = biological target: Death-associated protein kinase 2 (Homo sapiens) (UniProt Q9UIK4); details: dose 100.0 nM
Sequence of Death-associated protein kinase 2 (Homo sapiens) (Q9UIK4 whole entry, looked up): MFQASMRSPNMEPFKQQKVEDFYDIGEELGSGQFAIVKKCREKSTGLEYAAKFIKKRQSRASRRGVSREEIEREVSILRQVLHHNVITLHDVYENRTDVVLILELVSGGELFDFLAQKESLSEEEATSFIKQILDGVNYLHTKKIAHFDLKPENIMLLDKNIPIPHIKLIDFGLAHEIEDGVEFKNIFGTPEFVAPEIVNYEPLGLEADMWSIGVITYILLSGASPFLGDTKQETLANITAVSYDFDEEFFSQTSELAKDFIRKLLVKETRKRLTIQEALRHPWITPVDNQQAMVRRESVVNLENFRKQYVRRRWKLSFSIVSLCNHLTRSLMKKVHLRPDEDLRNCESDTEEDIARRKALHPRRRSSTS
Description: Inhibition of human recombinant full length DAPK2 using Calmodulin as substrate at 100 nM direct filter-binding radiometric kinase activity assay relative to control

COLO 205 = assay: Antiproliferative activity against human COLO-205 cells assessed as growth inhibition after 96 hrs by CCK8 assay; format: functional, cell-based; details: COLO 205, 96 h
[12] = biological target: Death-associated protein kinase 3 (Homo sapiens, UniProt O43293); details: dose 100.0 nM
Description: Inhibition of human DAPK3 at 100 nM by direct-filter Binding radiometric assay relative to control

[13] = biological target: NUAK family SNF1-like kinase 2 (Homo sapiens) (UniProt Q9H093); details: dose 100.0 nM
Homo sapiens = species: Homo sapiens; details: dose 100.0 nM
Description: Inhibition of PIPK5 (unknown origin) at 100 nM direct filter-binding radiometric kinase activity assay relative to control

[14] = biological target: STE20/SPS1-related proline-alanine-rich protein kinase (Homo sapiens) (UniProt Q9UEW8); details: dose 100.0 nM
Description: Inhibition of human STK39 at 100 nM by direct-filter Binding radiometric assay relative t

[15] = biological target: Mitogen-activated protein kinase 9 (Homo sapiens) (UniProt P45984); details: dose 100.0 nM
Description: Inhibition of human recombinant JNK2 using ATF2 at 100 nM direct filter-binding radiometric kinase activity assay relative to control

[16] = biological target: Phosphatidylinositol 4,5-bisphosphate 3-kinase catalytic subunit delta isoform (Homo sapiens, UniProt O00329); assay: Binding affinity to wild-type human partial length PIK3CD (R108 to Q1044 residues) expressed in HEK293 cells by active site-directed competition binding based Kinomescan method; format: cell-based
HCT-116 [17] = assay: Induction of apoptosis in human HCT-116 cells assessed as early apoptotic cells at 1000 nM incubated for 48 hrs by annexin V and 7-AAD staining based flow cytometry analysis (reference value: 8.12 %); format: functional
[18] = Half life in Sprague-Dawley rat at 25 mg/kg, po; format: ADME, organism-based; details: in vivo
[19] = AUC (0 to infinity) in Sprague-Dawley rat at 25 mg/kg, po; format: ADME, organism-based; design: time infinity, route oral, dose 25 mg/kg; details: in vivo
[20] = biological target: Serine/threonine-protein kinase 16 (Homo sapiens) (UniProt O75716); details: dose 100.0 nM
Sequence of Serine/threonine-protein kinase 16 (Homo sapiens) (O75716 whole entry): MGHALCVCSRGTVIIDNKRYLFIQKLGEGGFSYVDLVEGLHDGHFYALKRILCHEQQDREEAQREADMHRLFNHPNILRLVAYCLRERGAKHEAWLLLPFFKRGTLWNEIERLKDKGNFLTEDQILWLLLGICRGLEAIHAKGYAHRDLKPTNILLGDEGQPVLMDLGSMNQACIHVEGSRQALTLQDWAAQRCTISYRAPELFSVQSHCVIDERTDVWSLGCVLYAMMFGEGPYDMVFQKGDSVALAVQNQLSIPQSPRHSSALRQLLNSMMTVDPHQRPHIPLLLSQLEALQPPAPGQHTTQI
Description: Inhibition of human STK16 at 100 nM by direct-filter Binding radiometric assay relative to control

[21] = AUC (0 to infinity) in Sprague-Dawley rat at 5 mg/kg, iv; format: ADME, organism-based; design: route intravenous, time infinity, dose 5 mg/kg; details: in vivo
HCT-116 [22] = assay: Induction of apoptosis in human HCT-116 cells assessed as early apoptotic cells at 333.3 nM incubated for 48 hrs by annexin V and 7-AAD staining based flow cytometry analysis (reference value: 8.12 %); format: functional
[23] = biological target: Dual specificity protein kinase TTK (Homo sapiens) (UniProt P33981); details: dose 100.0 nM, time 40.0 min
[24] = biological target: Death-associated protein kinase 1 (Homo sapiens) (UniProt P53355); details: dose 100.0 nM
Sequence of Death-associated protein kinase 1 (Homo sapiens) (P53355 whole entry, looked up): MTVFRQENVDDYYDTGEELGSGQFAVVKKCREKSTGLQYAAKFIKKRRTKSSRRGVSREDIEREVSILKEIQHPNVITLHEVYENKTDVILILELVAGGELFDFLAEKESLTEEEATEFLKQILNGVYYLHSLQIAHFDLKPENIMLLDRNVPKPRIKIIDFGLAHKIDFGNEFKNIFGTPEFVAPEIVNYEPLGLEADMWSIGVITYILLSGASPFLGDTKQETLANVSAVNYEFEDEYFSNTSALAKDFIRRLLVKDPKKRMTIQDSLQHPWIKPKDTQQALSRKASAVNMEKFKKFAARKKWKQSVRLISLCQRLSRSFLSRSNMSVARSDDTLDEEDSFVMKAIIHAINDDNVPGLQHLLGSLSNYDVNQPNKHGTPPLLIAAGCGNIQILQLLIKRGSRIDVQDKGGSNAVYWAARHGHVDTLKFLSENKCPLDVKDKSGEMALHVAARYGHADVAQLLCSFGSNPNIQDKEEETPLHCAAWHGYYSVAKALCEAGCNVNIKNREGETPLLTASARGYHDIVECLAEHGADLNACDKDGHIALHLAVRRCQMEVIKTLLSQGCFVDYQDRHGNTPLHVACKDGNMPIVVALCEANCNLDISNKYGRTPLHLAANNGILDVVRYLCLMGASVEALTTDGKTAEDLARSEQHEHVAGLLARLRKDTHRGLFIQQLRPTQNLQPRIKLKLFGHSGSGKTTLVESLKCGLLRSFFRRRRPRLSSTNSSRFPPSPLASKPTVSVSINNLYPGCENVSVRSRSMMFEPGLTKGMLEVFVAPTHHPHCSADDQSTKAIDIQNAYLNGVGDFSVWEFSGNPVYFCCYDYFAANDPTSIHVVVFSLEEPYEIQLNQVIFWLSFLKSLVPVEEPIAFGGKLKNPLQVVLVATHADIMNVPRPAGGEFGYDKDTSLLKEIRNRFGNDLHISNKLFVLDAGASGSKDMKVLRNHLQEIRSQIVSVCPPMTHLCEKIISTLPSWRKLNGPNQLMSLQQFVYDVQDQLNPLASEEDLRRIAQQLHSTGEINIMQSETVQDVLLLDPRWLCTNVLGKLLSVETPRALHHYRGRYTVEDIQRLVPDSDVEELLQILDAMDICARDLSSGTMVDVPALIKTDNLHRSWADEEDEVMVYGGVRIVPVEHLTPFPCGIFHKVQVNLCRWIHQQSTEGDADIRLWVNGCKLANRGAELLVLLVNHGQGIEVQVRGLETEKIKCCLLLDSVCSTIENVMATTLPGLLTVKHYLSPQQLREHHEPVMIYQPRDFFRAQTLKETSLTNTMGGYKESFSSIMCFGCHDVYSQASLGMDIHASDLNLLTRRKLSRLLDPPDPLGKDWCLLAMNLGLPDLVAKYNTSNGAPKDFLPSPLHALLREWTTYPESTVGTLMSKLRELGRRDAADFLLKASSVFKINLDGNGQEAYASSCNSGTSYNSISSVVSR

HCT-116 [25] = assay: Induction of apoptosis in human HCT-116 cells assessed as necrotic cells at 111.1 nM incubated for 48 hrs by annexin V and 7-AAD staining based flow cytometry analysis (reference value: 1.20 %); format: functional
A549 = assay: Antiproliferative activity against human A549 cells assessed as growth inhibition after 96 hrs by CCK8 assay; format: functional, cell-based; details: A549, 96 h

COc1cc(N2CCN(C)CC2)ccc1Nc1ncc2c(C)cc(=O)n([C@H]3CC[C@@H](NC(=O)C4CCCCC4)CC3)c2n1
pIC50 (HCT-116 [1]): 6.39 | pKd [2]: 9.82 | inhibition [3]: 87% | pIC50 (NCI-H460): 5.96 | inhibition [4]: 75% | Activity (HCT-116 [5]): 4.46% | inhibition [6]: 69% | Activity (HCT-116 [7]): 21.18% | pKd [8]: < 6.00 | inhibition [9]: 85% | inhibition in vivo at 50 mg/kg (HCT-116 [10]): 78% | inhibition [11]: 65% | pIC50 (COLO 205): 6.55 | inhibition [12]: 94.5% | inhibition [13]: 84% | inhibition (Homo sapiens): 77% | inhibition [14]: 75% | inhibition [15]: 86% | pKd [16]: < 6.00 | Activity (HCT-116 [17]): 18.81% | half-life [18]: 6.01 h | AUC(0-inf) [19]: 13000 ng·h/mL | inhibition [20]: 87% | AUC(0-inf) [21]: 5310 ng·h/mL | Activity (HCT-116 [22]): 13.5% | inhibition [23]: 98.1% | inhibition [24]: 85% | Activity (HCT-116 [25]): 0.75% | pIC50 (A549): 5.36
